Results taken from US12054498B2, “Heteroaromatic macrocyclic ether chemotherapeutic agents” (Nuvalent, Inc., priority 2020, dated 2024).

Assays:
TRKA-wt = target: T1, TRKA-wt (Homo sapiens, UniProt P04629); test: Biochemical kinase assay, TRKA-wt kinase domain; settings: apparent inhibitory constant, Morrison equation; ATP 2 mM in substrate solution; read-out: TRKA-wt Ki^app
T1 construct: or TRKA-wt (1 nM, BPS Bio, 40280) kinase domains in buffer; purchased BPS Bio 40280
Method in brief: (§1)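 Compound in DMSO added first, then substrate solution (ATP 2 mM; AQT0101 or AQT0104, 26 μM; pH 7.5 HEPES, 10 mM MgCl2), then kinase solution with enzyme at 0.5–3 nM depending on construct. Kinetic read every 2 min for 120 min at 30° C; Ki^app by Morrison regression.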

ROS1-G2032R = target: T2, ROS1-G2032R (Homo sapiens, UniProt P08922, G2032R); test: Biochemical kinase assay, ROS1-G2032R kinase domain; settings: apparent inhibitory constant, Morrison equation; ATP 2 mM in substrate solution; read-out: ROS1-G2032R Ki^app
T2 construct: purchased SignalChem R14-12BG
T2 sequence (P08922 1945-2222 G2032R limits assumed): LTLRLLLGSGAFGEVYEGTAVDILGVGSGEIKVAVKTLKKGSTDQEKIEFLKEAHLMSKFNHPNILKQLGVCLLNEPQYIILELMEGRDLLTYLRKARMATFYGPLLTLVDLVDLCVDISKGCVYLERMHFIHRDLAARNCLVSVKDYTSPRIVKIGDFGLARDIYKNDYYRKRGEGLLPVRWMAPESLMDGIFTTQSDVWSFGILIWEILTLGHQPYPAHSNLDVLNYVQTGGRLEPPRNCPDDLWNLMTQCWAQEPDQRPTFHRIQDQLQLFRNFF
Method in brief: (§2)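 Kinetic read: 485 nm, 2-min intervals, 120 min, 30 °C. Substrate mix — ATP 2 mM, AQT0101 26 μM, HEPES 50 mM pH 7.5, MgCl2 10 mM. Output: Ki^app, Morrison equation.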

[1] = target: T3, Ba/F3 cells CD74-ROS1 G2032R (Homo sapiens, UniProt P08922, G2032R); test: Ba/F3 cell proliferation assay, CD74-ROS1 G2032R; assay type: cell-based; settings: 72 hours, CellTiter-Glo
T3 construct: fusion of the C-terminus of ROS1 with the N-terminus of various partner proteins; host or cells: Ba/F3 (RIKEN), retroviral pMSCV-puro; the other entry of the earlier key: CD74 (P04233, HLA class II histocompatibility antigen gamma chain)
T3 sequence (P08922 1883-2347 G2032R limits assumed): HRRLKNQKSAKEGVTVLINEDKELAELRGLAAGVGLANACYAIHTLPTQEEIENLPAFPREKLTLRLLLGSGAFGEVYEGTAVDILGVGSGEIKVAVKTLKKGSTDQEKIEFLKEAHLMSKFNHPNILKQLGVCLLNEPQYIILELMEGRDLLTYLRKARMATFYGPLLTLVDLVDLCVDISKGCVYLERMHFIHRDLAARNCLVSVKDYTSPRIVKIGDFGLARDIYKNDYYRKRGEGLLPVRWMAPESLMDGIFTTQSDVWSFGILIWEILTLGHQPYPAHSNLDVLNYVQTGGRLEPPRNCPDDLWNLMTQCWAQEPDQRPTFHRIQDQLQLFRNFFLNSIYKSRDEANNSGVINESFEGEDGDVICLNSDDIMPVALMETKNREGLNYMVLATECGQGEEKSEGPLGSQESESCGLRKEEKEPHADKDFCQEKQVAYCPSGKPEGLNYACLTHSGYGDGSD
Method in brief: (§3)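 Viability read by CellTiter-Glo luminescence after 72 h exposure to 3-fold serial compound dilutions, four-parameter logistic fitting giving IC50.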

ALK L1196M/G1202R = target: T4, ALK L1196M/G1202R (Homo sapiens, UniProt Q9UM73, G1202R/L1196M); test: Biochemical kinase assay, ALK L1196M/G1202R kinase domain; settings: apparent inhibitory constant, Morrison equation; ATP 2 mM in substrate solution; read-out: ALK-L1196M-G1202R Ki^app
T4 construct: purchased SignalChem A19-12NG
T4 sequence (Q9UM73 1116-1392 L1196M/G1202R limits assumed): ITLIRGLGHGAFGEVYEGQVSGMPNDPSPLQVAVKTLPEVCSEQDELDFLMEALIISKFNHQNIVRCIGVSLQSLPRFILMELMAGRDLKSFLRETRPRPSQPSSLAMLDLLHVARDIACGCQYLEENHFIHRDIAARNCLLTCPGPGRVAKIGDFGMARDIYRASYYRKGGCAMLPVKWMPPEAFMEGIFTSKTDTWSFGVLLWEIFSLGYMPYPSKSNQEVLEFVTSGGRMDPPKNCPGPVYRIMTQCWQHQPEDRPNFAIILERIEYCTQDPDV
Method in brief: as §1

ALK-wt = target: T5, ALK-wt (Homo sapiens, UniProt Q9UM73); test: Biochemical kinase assay, ALK-wt kinase domain; settings: apparent inhibitory constant, Morrison equation; ATP 2 mM in substrate solution; read-out: ALK-wt Ki^app
T5 construct: purchased Carna 08-518
T5 sequence (Q9UM73 1116-1392 limits assumed): as the sequence (Q9UM73 1116-1392 L1196M/G1202R limits assumed) above, with M81L, R87G counted along it
Method in brief: as §1

[2] = system: TPM3-NTRK1-wt IC50 / primary target IC50 (e.g. CD74-ROS1-wt); test: TRKA selectivity in Ba/F3 cells (TRKA potency divided by primary target potency); assay type: cell-based; settings: for TPM3-NTRK1-wt/CD74-ROS1-G2032R selectivity ratio: TRKA potency / CD74-ROS1-G2032R potency; for TPM3-NTRK1-wt/CD74-ROS1-wt selectivity ratio: TRKA potency / CD74-ROS1-wt potency; for TPM3-NTRK1-wt/EML4-ALK-L1196M-G1202R selectivity ratio: TRKA potency / EML4-ALK-L1196M-G1202R potency; for TPM3-NTRK1-wt/EML4-ALK-wt selectivity ratio: TRKA potency / EML4-ALK-wt potency
Experimental: TRKA selectivity was calculated by dividing a compound's TRKA potency by its primary target potency (e.g. TPM3-NTRK1-wt IC50/CD74-ROS1-wt IC50). Compound selectivity can be interpreted by binning ratio values: bin A for very high selectivity, ratio >30-fold; bin B for high selectivity, ratio >10-fold; bin C for moderate selectivity, ratio ≥1; and bin D for low selectivity, ratio <1. […] (nd=not determined).

[3] = target: T6, Ba/F3 cells EML4-ALK wt (variant 1) (Homo sapiens, UniProt Q9UM73); test: Ba/F3 cell proliferation assay, EML4-ALK wt (variant 1); assay type: cell-based; settings: 72 hours, CellTiter-Glo
T6 construct: echinoderm microtubule-associated protein-like 4 (EML4) gene and the ALK tyrosine kinase domain; host or cells: Ba/F3 (RIKEN), retroviral pMSCV-puro; the other entry of the earlier key: EML4 (Q9HC35, Echinoderm microtubule-associated protein-like 4)
T6 sequence (Q9UM73 with tags, fused parts or gaps): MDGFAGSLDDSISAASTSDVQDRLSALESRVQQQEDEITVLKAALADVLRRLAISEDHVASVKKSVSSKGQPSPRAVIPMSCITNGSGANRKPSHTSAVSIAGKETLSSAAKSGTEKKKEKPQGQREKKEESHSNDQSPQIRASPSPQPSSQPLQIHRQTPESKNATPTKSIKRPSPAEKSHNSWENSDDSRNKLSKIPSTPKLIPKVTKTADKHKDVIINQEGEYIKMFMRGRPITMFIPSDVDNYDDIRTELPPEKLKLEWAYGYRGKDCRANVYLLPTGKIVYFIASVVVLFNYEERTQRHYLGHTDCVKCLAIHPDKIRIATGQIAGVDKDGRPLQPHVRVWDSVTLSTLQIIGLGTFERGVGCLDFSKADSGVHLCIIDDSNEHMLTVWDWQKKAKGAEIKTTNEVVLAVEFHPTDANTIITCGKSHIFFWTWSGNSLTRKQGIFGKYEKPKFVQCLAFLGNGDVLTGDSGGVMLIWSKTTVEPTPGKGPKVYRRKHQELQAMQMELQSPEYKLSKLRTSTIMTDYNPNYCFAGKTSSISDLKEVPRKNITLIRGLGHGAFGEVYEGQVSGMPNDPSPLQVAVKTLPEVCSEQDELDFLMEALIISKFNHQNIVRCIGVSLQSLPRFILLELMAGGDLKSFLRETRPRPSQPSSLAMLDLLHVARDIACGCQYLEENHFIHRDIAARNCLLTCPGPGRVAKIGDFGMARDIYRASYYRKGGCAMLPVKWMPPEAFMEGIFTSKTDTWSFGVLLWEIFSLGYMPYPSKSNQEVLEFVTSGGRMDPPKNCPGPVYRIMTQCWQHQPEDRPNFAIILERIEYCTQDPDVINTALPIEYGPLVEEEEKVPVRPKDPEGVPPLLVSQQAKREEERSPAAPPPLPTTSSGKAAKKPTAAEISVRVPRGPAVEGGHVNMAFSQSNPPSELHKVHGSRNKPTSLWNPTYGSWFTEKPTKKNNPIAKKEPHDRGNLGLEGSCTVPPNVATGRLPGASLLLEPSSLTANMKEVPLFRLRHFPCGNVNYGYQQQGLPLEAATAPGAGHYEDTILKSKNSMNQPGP
Method in brief: (§4)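 IL-3-independent Ba/F3 monoclones, puromycin-selected, transduced with fusion genes; 1,000 cells/well, 1 day rest, 3-fold compound series, 72 h. Read: CellTiter-Glo luminescence. IC50 from % inhibition vs concentration, 4-parameter logistic.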

[4] = target: T7, Ba/F3 cells EML4-ALK L1196M/G1202R (variant 1) (Homo sapiens, UniProt Q9UM73, G1202R/L1196M); test: Ba/F3 cell proliferation assay, EML4-ALK L1196M/G1202R (variant 1); assay type: cell-based; settings: 72 hours, CellTiter-Glo
T7 construct: echinoderm microtubule-associated protein-like 4 (EML4) gene and the ALK tyrosine kinase domain; host or cells: Ba/F3 (RIKEN), retroviral pMSCV-puro; the other entry of the earlier key: EML4 (Q9HC35, Echinoderm microtubule-associated protein-like 4)
T7 sequence (Q9UM73 with tags, fused parts or gaps L1196M/G1202R): as the sequence (Q9UM73 with tags, fused parts or gaps) above, with L635M, G641R counted along it
Method in brief: as §4

ROS1-wt = target: T8, ROS1-wt (Homo sapiens, UniProt P08922); test: Biochemical kinase assay, ROS1-wt kinase domain; settings: apparent inhibitory constant, Morrison equation; ATP 2 mM in substrate solution; read-out: ROS1-wt Ki^app
T8 construct: purchased Carna 08-163
T8 sequence (P08922 1945-2222 limits assumed): as the sequence (P08922 1945-2222 G2032R limits assumed) above, with R88G counted along it
Method in brief: as §2

[5] = target: T9, Ba/F3 cells CD74-ROS1 wild-type (wt) (Homo sapiens, UniProt P08922); test: Ba/F3 cell proliferation assay, CD74-ROS1 wild-type; assay type: cell-based; settings: 72 hours, CellTiter-Glo
T9 construct: fusion of the C-terminus of ROS1 with the N-terminus of various partner proteins; host or cells: Ba/F3 (RIKEN), retroviral pMSCV-puro; the other entry of the earlier key: CD74 (P04233, HLA class II histocompatibility antigen gamma chain)
T9 sequence (P08922 1883-2347 limits assumed): as the sequence (P08922 1883-2347 G2032R limits assumed) above, with R150G counted along it
Method in brief: as §3

Ba/F3 cells TPM3-TRKA = target: T10, Ba/F3 cells TPM3-TRKA (Homo sapiens, UniProt P04629); test: Ba/F3 cell proliferation assay, TPM3-TRKA; assay type: cell-based; settings: 72 hours, CellTiter-Glo, read-out: TPM3-NTRK1-wt IC50
T10 construct: host or cells: Ba/F3 (RIKEN), retroviral pMSCV-puro; the other entry of the earlier key: TPM3 (P06753, Tropomyosin alpha-3 chain)
T10 sequence (P04629 510-796 limits assumed): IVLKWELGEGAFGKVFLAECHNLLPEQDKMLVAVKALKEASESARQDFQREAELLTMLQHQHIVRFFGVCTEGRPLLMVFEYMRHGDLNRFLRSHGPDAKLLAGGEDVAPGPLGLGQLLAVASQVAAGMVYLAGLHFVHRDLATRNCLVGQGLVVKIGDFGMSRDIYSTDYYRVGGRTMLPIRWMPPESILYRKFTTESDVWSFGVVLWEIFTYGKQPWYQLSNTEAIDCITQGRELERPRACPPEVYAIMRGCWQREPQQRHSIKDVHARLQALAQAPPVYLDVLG
Method in brief: as §4

T1 sequence (P04629 510-781 limits assumed): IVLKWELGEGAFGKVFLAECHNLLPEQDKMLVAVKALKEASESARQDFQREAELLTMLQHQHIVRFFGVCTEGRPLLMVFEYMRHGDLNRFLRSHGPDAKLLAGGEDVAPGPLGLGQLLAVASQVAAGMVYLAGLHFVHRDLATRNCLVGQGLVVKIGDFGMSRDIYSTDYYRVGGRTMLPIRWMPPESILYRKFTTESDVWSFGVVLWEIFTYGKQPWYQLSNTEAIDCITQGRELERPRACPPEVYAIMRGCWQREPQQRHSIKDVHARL

| Compound | Ki (TRKA-wt) [nM] | Ki (ROS1-G2032R) [nM] | IC50 [1] [nM] | Ki (ALK L1196M/G1202R) [nM] | Ki (ALK-wt) [nM] | IC50 [3] [nM] | IC50 [4] [nM] | Ki (ROS1-wt) [nM] | IC50 [5] [nM] | IC50 (Ba/F3 cells TPM3-TRKA) [nM] | TPM3-NTRK1-wt/CD74-ROS1-G2032R selectivity ratio [2] | TPM3-NTRK1-wt/CD74-ROS1-wt selectivity ratio [2] | TPM3-NTRK1-wt/EML4-ALK-L1196M-G1202R selectivity ratio [2] | TPM3-NTRK1-wt/EML4-ALK-wt selectivity ratio [2] |
| --- | --- | --- | --- | --- | --- | --- | --- | --- | --- | --- | --- | --- | --- | --- |
| C[C@H]1Oc2cc(cnc2N)-c2c(cnn2CC(F)F)Cc2nn(C)nc2-c2ccc(F)cc21 [Example 24, (19R)-3-(2,2-difluoroethyl)-16-fluoro-10,19-dimethyl-20oxa3,4,9,10,11,23-hexaazapentacyclo[19.3.1.0^2,^6.0^8,^12.0^13,^18]pentacosa-1(24),2(6),4,8,11,13,15,17,21 (25),22-decaen-22-amine] | > 500 | < 50 | 0.1 to 50 | < 50 | < 50 | 0.1 to 50 | 50 to 500 | < 50 | 0.1 to 50 | > 500 | A (bin A for very high selectivity, ratio >30-fold) | A (bin A for very high selectivity, ratio >30-fold) | B (bin B for high selectivity, ratio >10-fold) | A (bin A for very high selectivity, ratio >30-fold) |
| Cc1cc2n(n1)Cc1cnn(CCF)c1-c1cnc(N)c(c1)O[C@H](C)c1cc(F)ccc1-2 [Example 92, (19R)-16-fluoro-3-(2-fluoroethyl)-10,19-dimethyl-20-oxa-3,4,8,9,23-pentaazapentacyclo[19.3.1.0^2,^6.0^8,^12.0^13,^18]pentacosa-1(24),2(6),4,9,11,13,15,17,21(25),22-decaen-22-amine] | > 500 | < 50 | 0.1 to 50 | < 50 | < 50 | 0.1 to 50 | 50 to 500 | < 50 | 0.1 to 50 | 50 to 500 | A (bin A for very high selectivity, ratio >30-fold) | A (bin A for very high selectivity, ratio >30-fold) | C (bin C for moderate selectivity, ratio ≥1) | B (bin B for high selectivity, ratio >10-fold) |

More lines, main results first:

| Ki (TRKA-wt) [nM] | Ki (ROS1-G2032R) [nM] | IC50 [1] [nM] | Ki (ALK L1196M/G1202R) [nM] | Ki (ALK-wt) [nM] | IC50 [3] [nM] | IC50 [4] [nM] | Ki (ROS1-wt) [nM] | IC50 [5] [nM] | IC50 (Ba/F3 cells TPM3-TRKA) [nM] | Compound | TPM3-NTRK1-wt/CD74-ROS1-G2032R selectivity ratio [2] | TPM3-NTRK1-wt/CD74-ROS1-wt selectivity ratio [2] | TPM3-NTRK1-wt/EML4-ALK-L1196M-G1202R selectivity ratio [2] | TPM3-NTRK1-wt/EML4-ALK-wt selectivity ratio [2] |
| --- | --- | --- | --- | --- | --- | --- | --- | --- | --- | --- | --- | --- | --- | --- |
| > 500 | < 50 | 0.1 to 50 | < 50 | < 50 | 50 to 500 | 50 to 500 | < 50 | 0.1 to 50 | > 500 | CCn1nc(Cl)c2c1-c1cnc(N)c(c1)O[C@H](C)c1cc(F)ccc1-c1oc(C)nc1C2 [Example 84, (19R)-5-chloro-3-ethyl-16-fluoro-10,19-dimethyl-11,20-dioxa-3,4,9,23-tetraazapentacyclo[19.3.1.0^2,^6.0^8,^12.0^13,^18]pentacosa-1(24),2(6),4,8(12),9,13,15,17,21(25),22-decaen-22-amine] | A (bin A for very high selectivity, ratio >30-fold) | A (bin A for very high selectivity, ratio >30-fold) | C (bin C for moderate selectivity, ratio ≥1) | B (bin B for high selectivity, ratio >10-fold) |
| 50 to 500 | < 50 | 0.1 to 50 | < 50 | < 50 | 0.1 to 50 | 50 to 500 | < 50 | 0.1 to 50 | 50 to 500 | C[C@H]1Oc2cc(cnc2N)-c2c(cnn2CC(F)F)Cc2ncc(F)cc2-c2ccc(F)cc21 [Example 73, (20R)-3-(2,2difluoroethyl)-11,17-difluoro-20-methyl-21-oxa-3,4.9,24-tetraazapentacyclo[20.3.1.0^2,^6.0^8,^13.0^13,^19]hexacosa-1(25),2(6),4,8(13),9,11,14,16,18,22(26),23-undecaen-23-amine] | A (bin A for very high selectivity, ratio >30-fold) | A (bin A for very high selectivity, ratio >30-fold) | C (bin C for moderate selectivity, ratio ≥1) | A (bin A for very high selectivity, ratio >30-fold) |
| 50 to 500 | < 50 | 0.1 to 50 | < 50 | < 50 | 0.1 to 50 | 0.1 to 50 | < 50 | 0.1 to 50 | 50 to 500 | C[C@H]1Oc2cc(cnc2N)-c2c(cnn2CC2CC2)Cc2ncc(F)cc2-c2ccc(F)cc21 [Example 72, (20R)-3-(cyclopropylmethyl)-11,17-difluoro-20-methyl-21-oxa-3,4,9,24-tetraazapentacyclo[20.3.1.0^2,^6.0^8,^13.0^14,^19]hexacosa-1(25),2(6),4,8(13),9,11,14,16,18,22(26),23-undecaen-23-amine] | A (bin A for very high selectivity, ratio >30-fold) | A (bin A for very high selectivity, ratio >30-fold) | A (bin A for very high selectivity, ratio >30-fold) | A (bin A for very high selectivity, ratio >30-fold) |
| 50 to 500 | < 50 | 0.1 to 50 | < 50 | < 50 | 0.1 to 50 | 0.1 to 50 | < 50 | 0.1 to 50 | 50 to 500 | CCn1ncc2c1-c1cnc(N)c(c1)O[C@H](C)c1cc(F)ccc1-c1cc(F)nn1C2 [Example 15, (19R)-3-ethyl-10,16-difluoro-19-methyl-20-oxa-3,4,8,9,23-pentaazapentacyclo[19.3.1.0^2,^6.0^8,^12.0^13,^18]pentacosa-1(24),2(6),4,9,11,13,15,17,21(25),22-decaen-22-amine] | A (bin A for very high selectivity, ratio >30-fold) | A (bin A for very high selectivity, ratio >30-fold) | C (bin C for moderate selectivity, ratio ≥1) | A (bin A for very high selectivity, ratio >30-fold) |
